In ChEMBL document CHEMBL3397027, “Design, synthesis and evaluation of chromone-2-carboxamido-alkylbenzylamines as multifunctional agents for the treatment of Alzheimer's disease” (Bioorg Med Chem, 2015):
pIC50: −log10 of the molar value. Active and inactive are the calls of the source. The calls are words filed in the database; no cut-off is given here.

Legend:
[1] = molecular target: Amyloid-beta precursor protein (Homo sapiens) (UniProt P05067); experiment: Inhibition of self-mediated aggregation of amyloid beta (1-42) (unknown origin) at 25 uM after 24 hrs by thioflavin T fluorescence-based fluorimetric method
[2] = Inhibition of rat serum BuChE using butyrylthiocholine iodide as substrate after 15 mins by Ellman method; format: cell-free
Acetylcholinesterase [3] = molecular target: T1, Acetylcholinesterase (Rattus norvegicus, UniProt P37136); experiment: Inhibition of AChE from rat cortex homogenate using acetylthiocholine iodide as substrate after 15 mins by Ellman method
T1 sequence (P37136 whole entry): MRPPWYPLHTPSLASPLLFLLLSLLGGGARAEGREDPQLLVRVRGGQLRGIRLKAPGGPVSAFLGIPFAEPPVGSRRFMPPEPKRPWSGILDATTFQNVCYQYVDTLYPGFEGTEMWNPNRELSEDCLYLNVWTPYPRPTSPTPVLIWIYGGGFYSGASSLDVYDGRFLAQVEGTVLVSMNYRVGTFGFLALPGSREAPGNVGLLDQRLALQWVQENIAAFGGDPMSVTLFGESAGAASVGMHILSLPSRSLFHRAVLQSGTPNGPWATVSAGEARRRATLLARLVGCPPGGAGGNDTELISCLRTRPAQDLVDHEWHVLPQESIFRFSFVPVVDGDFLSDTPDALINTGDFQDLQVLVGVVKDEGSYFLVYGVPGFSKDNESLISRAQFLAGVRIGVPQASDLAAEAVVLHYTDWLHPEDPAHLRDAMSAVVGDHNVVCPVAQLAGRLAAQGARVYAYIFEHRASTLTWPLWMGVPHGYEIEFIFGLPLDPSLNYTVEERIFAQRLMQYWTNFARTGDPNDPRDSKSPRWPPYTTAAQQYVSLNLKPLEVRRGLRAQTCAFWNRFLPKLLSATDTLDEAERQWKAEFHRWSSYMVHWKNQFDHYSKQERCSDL

[4] = Antioxidant activity assessed as AAPH scavenging activity measured as trolox equivalent at 5 uM after 15 mins by ORAC-FL method relative to control; format: physicochemical; conditions: 0.25 h
[5] = molecular target: Amyloid-beta precursor protein (Homo sapiens) (UniProt P05067); experiment: Inhibition of Cu2+-mediated aggregation of amyloid beta (1-42) (unknown origin) at 25 uM after 24 hrs by thioflavin T fluorescence-based fluorimetric method
Rattus norvegicus = species on record: Rattus norvegicus; experiment: Selectivity index, ratio of IC50 for rat serum BuChE to IC50 for AChE from rat cortex homogenate; format: cell-free
Acetylcholinesterase [6] = molecular target: Acetylcholinesterase (Electrophorus electricus, UniProt O42275); experiment: Inhibition of electric eel AChE using acetylthiocholine iodide as substrate after 15 mins by Ellman method; conditions: for pIC50: read-out: IC50
[7] = Metal chelating activity of the compound assessed as formation of iron-compound complex in methanol solution at 37.5 uM after 30 mins by UV-vis spectrometry; format: physicochemical; conditions: 0.5 h
[8] = Metal chelating activity of the compound assessed as formation of copper-compound complex in methanol solution at 37.5 uM after 30 mins by UV-vis spectrometry; format: physicochemical; conditions: 0.5 h
[9] = Metal chelating activity of the compound assessed as formation of aluminium-compound complex in methanol solution at 37.5 uM after 30 mins by UV-vis spectrometry; format: physicochemical; conditions: 0.5 h
[10] = molecular target: Acetylcholinesterase (Electrophorus electricus) (UniProt O42275); experiment: Mixed-type inhibition of electric eel AChE using acetylthiocholine iodide as substrate at 0.0625 to 0.25 uM after 15 mins by Lineweaver-Burk plot method
[11] = Metal chelating activity of the compound assessed as formation of zinc-compound complex in methanol solution at 37.5 uM after 30 mins by UV-vis spectrometry; format: physicochemical; conditions: 0.5 h

Sequence of Amyloid-beta precursor protein (Homo sapiens) (P05067 whole entry): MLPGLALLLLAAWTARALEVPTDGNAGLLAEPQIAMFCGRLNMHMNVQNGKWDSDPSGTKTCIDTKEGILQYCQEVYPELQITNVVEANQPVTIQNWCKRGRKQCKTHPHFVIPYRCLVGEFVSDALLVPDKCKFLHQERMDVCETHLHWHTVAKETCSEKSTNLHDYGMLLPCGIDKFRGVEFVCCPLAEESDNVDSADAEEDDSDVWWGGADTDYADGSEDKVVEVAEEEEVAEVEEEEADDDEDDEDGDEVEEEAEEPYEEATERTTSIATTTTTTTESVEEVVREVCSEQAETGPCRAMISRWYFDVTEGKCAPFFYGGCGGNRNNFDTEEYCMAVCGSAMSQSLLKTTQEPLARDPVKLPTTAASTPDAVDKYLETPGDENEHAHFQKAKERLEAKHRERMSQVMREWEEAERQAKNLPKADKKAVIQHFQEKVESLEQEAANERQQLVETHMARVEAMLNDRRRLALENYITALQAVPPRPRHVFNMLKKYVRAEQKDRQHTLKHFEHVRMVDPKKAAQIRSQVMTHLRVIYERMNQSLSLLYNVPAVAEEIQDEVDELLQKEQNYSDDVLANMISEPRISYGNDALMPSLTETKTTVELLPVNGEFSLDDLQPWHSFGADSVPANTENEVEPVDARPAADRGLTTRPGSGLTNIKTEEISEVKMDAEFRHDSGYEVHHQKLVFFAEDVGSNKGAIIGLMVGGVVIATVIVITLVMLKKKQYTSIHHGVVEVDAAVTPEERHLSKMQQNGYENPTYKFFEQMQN
Sequence of Acetylcholinesterase (Electrophorus electricus, UniProt O42275) (O42275 whole entry): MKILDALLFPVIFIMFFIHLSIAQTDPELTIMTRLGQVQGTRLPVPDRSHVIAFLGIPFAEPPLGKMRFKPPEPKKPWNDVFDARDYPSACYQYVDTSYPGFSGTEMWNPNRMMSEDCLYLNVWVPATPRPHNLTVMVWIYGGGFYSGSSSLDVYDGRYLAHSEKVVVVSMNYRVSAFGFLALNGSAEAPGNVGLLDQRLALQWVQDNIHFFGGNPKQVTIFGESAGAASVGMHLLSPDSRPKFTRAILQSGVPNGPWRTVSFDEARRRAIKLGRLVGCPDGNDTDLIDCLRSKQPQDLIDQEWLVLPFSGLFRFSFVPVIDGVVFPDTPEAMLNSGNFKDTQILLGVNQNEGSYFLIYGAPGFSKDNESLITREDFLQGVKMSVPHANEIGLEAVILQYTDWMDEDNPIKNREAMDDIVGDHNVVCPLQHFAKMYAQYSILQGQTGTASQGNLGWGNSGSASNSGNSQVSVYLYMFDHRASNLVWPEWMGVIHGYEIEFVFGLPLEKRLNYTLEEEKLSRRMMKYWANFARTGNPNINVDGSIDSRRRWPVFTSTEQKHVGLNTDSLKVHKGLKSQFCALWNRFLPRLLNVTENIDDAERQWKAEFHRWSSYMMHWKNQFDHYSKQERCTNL
Sequence of Acetylcholinesterase (Electrophorus electricus) (O42275 24-633 limits assumed): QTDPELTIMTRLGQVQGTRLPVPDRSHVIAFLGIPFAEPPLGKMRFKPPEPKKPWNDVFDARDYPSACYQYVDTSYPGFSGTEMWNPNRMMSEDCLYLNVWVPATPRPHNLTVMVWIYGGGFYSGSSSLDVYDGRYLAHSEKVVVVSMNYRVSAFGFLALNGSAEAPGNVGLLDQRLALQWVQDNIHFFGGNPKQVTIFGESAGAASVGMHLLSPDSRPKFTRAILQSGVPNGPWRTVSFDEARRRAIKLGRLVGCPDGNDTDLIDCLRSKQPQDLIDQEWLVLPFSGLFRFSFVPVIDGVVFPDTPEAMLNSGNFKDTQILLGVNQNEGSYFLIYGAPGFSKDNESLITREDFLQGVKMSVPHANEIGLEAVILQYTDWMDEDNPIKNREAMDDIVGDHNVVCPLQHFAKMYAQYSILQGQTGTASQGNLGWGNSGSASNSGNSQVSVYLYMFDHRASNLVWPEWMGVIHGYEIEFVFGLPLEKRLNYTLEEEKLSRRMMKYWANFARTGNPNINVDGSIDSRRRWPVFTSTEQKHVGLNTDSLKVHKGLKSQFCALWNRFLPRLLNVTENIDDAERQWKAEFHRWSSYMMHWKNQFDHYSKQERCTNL

| SMILES | inhibition [1] [%] | pIC50 [2] | pIC50 (Acetylcholinesterase [3]) | fold change (FC) [4] | inhibition [5] [%] | Ratio IC50 (Rattus norvegicus) | pIC50 (Acetylcholinesterase [6]) | Activity [7] | Activity [8] | Activity [9] | inhibition [10] | Activity [11] | IC50 (Acetylcholinesterase [6]) |
| --- | --- | --- | --- | --- | --- | --- | --- | --- | --- | --- | --- | --- | --- |
| COc1ccccc1CN(C)CCCCNC(=O)c1cc(=O)c2c(O)cccc2o1 | 49.3 | 4.26 | 5.86 | 0.81 | 24.1 | 40.1 | 5.48 |  |  |  |  |  |  |
| CN(C)c1cc(O)c2c(=O)cc(C(=O)O)oc2c1 |  | < 3.70 | < 3.70 | 0.95 |  |  | < 3.70 |  |  |  |  |  |  |
| CCN(CCCNC(=O)c1cc(=O)c2c(O)cccc2o1)Cc1ccccc1OC | 48.7 | 4.03 | 6.39 | 1.13 | 35.2 | 228 | 4.86 |  |  |  |  |  |  |
| CCN(CCCCNC(=O)c1cc(=O)c2c(O)cc(N(C)C)cc2o1)Cc1ccccc1OC | 41.1 | 3.96 | 6.04 | 1.05 | 36.9 | 120 | 5.40 |  |  |  |  |  |  |
| CCN(CCCCNC(=O)c1cc(=O)c2c(O)cc(OC)cc2o1)Cc1ccc(N(C)C)cc1 | 37.1 | 4.24 | 5.13 | 2.2 | 28.8 | 7.7 | 5.04 |  |  |  |  |  |  |
| C#CCN(CCCCNC(=O)c1cc(=O)c2c(O)cc(OC)cc2o1)Cc1ccccc1OC | 22.4 | 4.24 | 4.87 | 0.56 | 21.5 | 4.2 | 4.14 |  |  |  |  |  |  |
| CCN(CCCCNC(=O)c1cc(=O)c2c(O)cc(OC)cc2o1)Cc1ccccc1 | 39 | 3.89 | 5.74 | 0.65 | 34.1 | 71 | 5.84 |  |  |  |  |  |  |
| CCN(CCCCNC(=O)c1cc(=O)c2c(O)cc(OC)cc2o1)Cc1ccccc1N(C)C | 25.6 | 4.13 | 6.51 | 0.97 | 20 | 239 | 6.04 |  |  |  |  |  |  |
| CCN(CCCNC(=O)c1cc(=O)c2c(O)cc(O)cc2o1)Cc1ccccc1OC | 35.1 | < 3.70 | 5.16 | 2.1 | 18.1 | > 29.2 | 4.30 |  |  |  |  |  |  |
| COc1cc(O)c2c(=O)cc(C(=O)NCCCCN(C)Cc3ccccc3)oc2c1 | 24.4 | 3.87 | 5.12 | 0.79 | 35.3 | 17.9 | 5.23 |  |  |  |  |  |  |
| COc1cc(O)c2c(=O)cc(C(=O)NCCCCCCN(C)Cc3ccccc3)oc2c1 | 33.5 | 4.30 | 5.52 | 1 | 37.1 | 16.5 | 6.60 |  |  |  |  |  |  |
| CCN(CCCCCCNC(=O)c1cc(=O)c2c(O)cc(OC)cc2o1)Cc1ccccc1 | 28.6 | 4.27 | 5.77 | 0.65 | 42.6 | 31.5 | 5.86 |  |  |  |  |  |  |
| COc1cc(O)c2c(=O)cc(C(=O)NCCCCCCN(C)Cc3ccccc3OC)oc2c1 | 43.9 | 4.36 | 5.80 | 1.3 | 48.1 | 27.2 | 6.24 |  |  |  |  |  |  |
| CCN(CCCCNC(=O)c1cc(=O)c2c(O)cccc2o1)Cc1ccccc1OC | 59.2 | 4.29 | 7.15 | 0.83 | 48.3 | 736 | 6.26 | Not Active | Active | Not Active | Active | Not Active |  |
| CCN(CCCNC(=O)c1cc(=O)c2c(O)cc(OC)cc2o1)Cc1ccccc1OC | 47.9 | 3.71 | 6.06 | 0.54 | 27.2 | 224 | 5.73 |  |  |  |  |  |  |
| CCN(CCCCCCNC(=O)c1cc(=O)c2c(O)cccc2o1)Cc1ccccc1OC | 63 | 4.63 | 6.72 | 0.87 | 55.6 | 122 | 6.28 |  |  |  |  |  |  |
| CCN(CCCCNC(=O)c1cc(=O)c2c(O)cc(O)cc2o1)Cc1ccccc1OC | 37.8 | 3.85 | 5.95 | 2.3 | 32.1 | 127 | 4.44 |  |  |  |  |  |  |

| SMILES | inhibition [1] [%] | pIC50 [2] | pIC50 (Acetylcholinesterase [3]) | fold change (FC) [4] | inhibition [5] [%] | Ratio IC50 (Rattus norvegicus) | pIC50 (Acetylcholinesterase [6]) | Activity [7] | Activity [8] | Activity [9] | inhibition [10] | Activity [11] | IC50 (Acetylcholinesterase [6]) |
| --- | --- | --- | --- | --- | --- | --- | --- | --- | --- | --- | --- | --- | --- |
| O=C(O)c1cc(=O)c2c(O)cc(O)cc2o1 |  | < 3.70 | < 3.70 | 2.01 |  |  | < 3.70 |  |  |  |  |  |  |
| CCN(CCCCNC(=O)c1cc(=O)c2c(O)cc(N(C)C)cc2o1)Cc1ccccc1N(C)C | 40.8 | 3.83 | 5.86 | 1.34 | 30.7 | 107 | 5.45 |  |  |  |  |  |  |
| CCN(CCCCCCNC(=O)c1cc(=O)c2c(O)cc(OC)cc2o1)Cc1ccccc1OC | 58.2 | 4.30 | 6.64 | 0.76 | 52 | 217 | 6.25 |  |  |  |  |  |  |
| COc1cc2c(cc1OC)C(=O)C(CC1CCN(Cc3ccccc3)CC1)C2 (stereo unspecified) [DONEPEZIL] |  | 4.68 |  |  |  |  |  |  |  |  |  |  |  |
| COc1cc(O)c2c(=O)cc(C(=O)NCCCN(C)Cc3ccccc3)oc2c1 | 23 | < 3.70 | 4.82 | 0.46 | 24.3 | > 13.1 | 5.51 |  |  |  |  |  |  |
| COc1cc(O)c2c(=O)cc(C(=O)NCCCN(C)Cc3ccccc3OC)oc2c1 | 43.6 | 3.77 | 5.40 | 0.93 | 28.7 | 42.5 | 5.01 |  |  |  |  |  |  |
| COc1cc(O)c2c(=O)cc(C(=O)NCCCCN3CCOc4ccccc4C3)oc2c1 | 40.9 | < 3.70 | < 3.70 | 0.68 | 35 |  | < 3.70 |  |  |  |  |  |  |
| COc1cc(/C=C/C(=O)CC(=O)/C=C/c2ccc(O)c(OC)c2)ccc1O |  |  |  |  | 58 |  |  |  |  |  |  |  |  |
| COc1cc(O)c2c(=O)cc(C(=O)O)oc2c1 |  | < 3.70 | < 3.70 | 0.87 |  |  | < 3.70 |  |  |  |  |  |  |
| CCN(CCCCCCNC(=O)c1cc(=O)c2c(O)cc(O)cc2o1)Cc1ccccc1OC | 39.4 | < 3.70 | 6.06 | 2.25 | 28.7 | > 200 | 5.85 |  |  |  |  |  |  |
| COc1ccccc1CN(C)CCCNC(=O)c1cc(=O)c2c(O)cccc2o1 | 50.6 | 3.99 | 5.02 | 1.64 | 23.8 | 10.7 |  |  |  |  |  |  | Not Active |
| CCOC(=O)c1cc(=O)c2c(O)cccc2o1 |  | < 3.70 | < 3.70 | 0.78 |  |  | < 3.70 |  |  |  |  |  |  |
| COc1cc(O)c2c(=O)cc(C(=O)NCCCCN(C)Cc3ccccc3OC)oc2c1 | 47.5 | 4.09 | 5.54 | 0.55 | 36.3 | 28.3 | 5.46 |  |  |  |  |  |  |
| CCN(CCCCNC(=O)c1cc(=O)c2c(O)cc(OC)cc2o1)Cc1ccccc1OC | 51 | 4.06 | 6.48 | 0.62 | 38.9 | 262 | 5.94 |  |  |  |  |  |  |
| CN(CCCNC(=O)c1cc(=O)c2c(O)cccc2o1)Cc1ccccc1 | 43.9 | 3.92 | 4.71 | 0.85 | 25.8 | 6.1 | 4.61 |  |  |  |  |  |  |
| CCN(CCCNC(=O)c1cc(=O)c2c(O)cc(OC)cc2o1)Cc1ccccc1 | 21.1 | 4.08 | 5.10 | 0.66 | 31.5 | 10.5 | 4.95 |  |  |  |  |  |  |
